The source of these data is patent US6875760B2 (Novo Nordisk A/S, priority 1999, dated 2005).

In the assay the target is T1, human glucagon receptor (Homo sapiens, UniProt P47871).
T1 construct: expressed in transfected cells; host or cells: BHK (baby hamster kidney) cells
Briefly: Glucagon Binding Assay (III). The following applies: BHK cell membranes, WGA SPA beads, 125I-glucagon; read-out: Glu Bd Assay (III) IC50. In a few lines:
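Non-specific binding was set with 500 nM glucagon in this SPA-type binding assay using WGA beads. The receptor source was a membrane preparation, kept on ice or at 4 °C, from BHK cells transfected with the human receptor. Scintillation counts were taken after 4 hours of shaking and 8–48 hours of settling.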

T1 sequence (P47871 26-477): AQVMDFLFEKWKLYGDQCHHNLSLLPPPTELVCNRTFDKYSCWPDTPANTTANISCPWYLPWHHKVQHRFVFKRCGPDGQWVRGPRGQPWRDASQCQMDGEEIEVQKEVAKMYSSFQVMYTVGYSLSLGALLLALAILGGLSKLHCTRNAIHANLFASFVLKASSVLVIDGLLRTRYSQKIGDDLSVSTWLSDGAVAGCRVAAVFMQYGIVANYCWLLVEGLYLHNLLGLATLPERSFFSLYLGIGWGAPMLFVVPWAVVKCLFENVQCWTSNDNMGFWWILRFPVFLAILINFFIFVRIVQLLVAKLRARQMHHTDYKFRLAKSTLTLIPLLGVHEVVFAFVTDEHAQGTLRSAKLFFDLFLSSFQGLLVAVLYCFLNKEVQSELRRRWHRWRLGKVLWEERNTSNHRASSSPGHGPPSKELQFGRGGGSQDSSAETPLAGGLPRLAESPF

With `CCC(C)c1ccc(N(Cc2ccc(C(=O)Nc3nn[nH]n3)cc2)C(=O)Nc2cccc(S(C)(=O)=O)c2)cc1` (centres unmarked) [Example 446, 4-[1-(4-sec-Butylphenyl)-3-(3-methylsulfonylphenyl)ureidomethyl]-N-(2H-tetrazol-5-yl)benzamide], the IC50 (usually the concentration that gives 50% inhibition) is 522 nM.

Regarding `CCCCc1ccc(N(Cc2ccc(C(=O)Nc3nn[nH]n3)cc2)C(=O)Nc2cccc(S(C)(=O)=O)c2)cc1` [Example 447, 4-[1-(4-Butylphenyl)-3-(3-methylsulfonylphenyl)ureidomethyl]-N-(2H-tetrazol-5-yl)benzamide], the half-inhibitory concentration (IC50) amounted to 327 nM.

As to `CCC(C)c1ccc(N(Cc2ccc(C(=O)Nc3nn[nH]n3)cc2)C(=O)Nc2ccc(S(C)(=O)=O)cc2)cc1` (centres unmarked) [Example 448, 4-[1-(4-sec-Butylphenyl)-3-(4-methylsulfonylphenyl)ureidomethyl]-N-(2H-tetrazol-5-yl)benzamide], the IC50 was 1480 nM.

On to `CC(C)(C)c1ccc(N(Cc2ccc(C(=O)Nc3nn[nH]n3)cc2)C(=O)Nc2cccc(S(C)(=O)=O)c2)cc1` [Example 449, 4-[1-(4-tert-Butylphenyl)-3-(3-methylsulfonylphenyl)ureidomethyl]-N-(2H-tetrazol-5-yl)benzamide], for which the IC50 was determined as 195 nM.

`CS(=O)(=O)c1cccc(NC(=O)N(Cc2ccc(C(=O)Nc3nn[nH]n3)cc2)c2ccc(OC(F)(F)F)cc2)c1` [Example 450, 4-[3-(3-Methylsulfonylphenyl)-1-(4-trifluoromethoxyphenyl)ureidomethyl]-N-(2H-tetrazol-5-yl)benzamide]: the IC50 is 1790 nM.

Take `CS(=O)(=O)c1ccc(NC(=O)N(Cc2ccc(C(=O)Nc3nn[nH]n3)cc2)c2ccc(OC(F)(F)F)cc2)cc1` [Example 451, 4-[3-(4-Methylsulfonylphenyl)-1-(4-trifluoromethoxyphenyl)ureidomethyl]-N-(2H-tetrazol-5-yl)benzamide]: the half-inhibitory concentration (IC50) came out at 3450 nM.

On to `CCS(=O)(=O)c1cccc(NC(=O)N(Cc2ccc(C(=O)Nc3nn[nH]n3)cc2)c2ccc(OC(F)(F)F)cc2)c1` [Example 452, 4-[3-(3-Ethylsulfonylphenyl)-1-(4-trifluoromethoxyphenyl)ureidomethyl]-N-(2H-tetrazol-5-yl)benzamide], for which the IC50 came to 1410 nM.

Consider `CCS(=O)(=O)c1cccc(NC(=O)N(Cc2ccc(C(=O)Nc3nn[nH]n3)cc2)c2ccc(C3CCCCC3)cc2)c1` [Example 453, 4-[1-(4-Cyclohexylphenyl)-3-(3-ethylsulfonylphenyl)ureidomethyl]-N-(2H-tetrazol-5-yl)benzamide], for which the half-maximal inhibitory concentration (IC50) was determined as 72 nM.

For `CCS(=O)(=O)c1cccc(NC(=O)N(Cc2ccc(C(=O)Nc3nn[nH]n3)cc2)c2ccc(C(C)(C)C)cc2)c1` [Example 454, 4-[1-(4-tert-Butylphenyl)-3-(3-ethylsulfonylphenyl)ureidomethyl]-N-(2H-tetrazol-5-yl)benzamide], the IC50 is 214 nM.

For `O=C(Nc1nn[nH]n1)c1ccc(CN(C(=O)Nc2ccc(S(=O)(=O)C(F)(F)F)cc2)c2ccc(C3CCCCC3)cc2)cc1` [Example 455, 4-[1-(4-Cyclohexylphenyl)-3-(4-trifluoromethylsulfonylphenyl)ureidomethyl]-N-(2H-tetrazol-5-yl)benzamide], the IC50 is 53 nM.

Take `CC(C)(C)c1ccc(N(Cc2ccc(C(=O)Nc3nn[nH]n3)cc2)C(=O)Nc2cccc(C(=O)O)c2)cc1` [Example 456, 3-{3-(4-tert-Butylphenyl)-3-[4-(2H-tetrazol-5-ylcarbamoyl)benzyl]ureido}benzoic acid]: the IC50 was 2810 nM.

Turning to `CC(C)(C)c1ccc(N(Cc2ccc(C(=O)Nc3nn[nH]n3)cc2)C(=O)Nc2cccc(C(=O)Oc3c(F)c(F)c(F)c(F)c3F)c2)cc1` [Example 457, 3-{3-(4-tert-Butylphenyl)-3-[4-(2H-tetrazol-5-ylcarbamoyl)benzyl]ureido}benzoic acid pentafluorophenyl ester], the IC50 amounted to 841 nM.

`CNC(=O)c1cccc(NC(=O)N(Cc2ccc(C(=O)Nc3nn[nH]n3)cc2)c2ccc(C(C)(C)C)cc2)c1` [Example 458, N-Methyl-3-{3-(4-tert-butylphenyl)-3-[4-(2H-tetrazol-5-ylcarbamoyl)benzyl]ureido}benzamide]: the IC50 amounted to 1810 nM.

`CC(C)(C)c1ccc(N(Cc2ccc(C(=O)Nc3nn[nH]n3)cc2)C(=O)Nc2cccc(C(N)=O)c2)cc1` [Example 459, 3-{3-(4-tert-Butylphenyl)-3-[4-(2H-tetrazol-5-ylcarbamoyl)benzyl]ureido}benzamide]: the IC50 came to 2110 nM.

As to `CCNC(=O)c1cccc(NC(=O)N(Cc2ccc(C(=O)Nc3nn[nH]n3)cc2)c2ccc(C(C)(C)C)cc2)c1` [Example 460, N-Ethyl-3-{3-(4-tert-butylphenyl)-3-[4-(2H-tetrazol-5-ylcarbamoyl)benzyl]ureido}benzamide], the concentration for half-maximal inhibition (IC50) was found to be 1730 nM.

For `CN(C)C(=O)c1cccc(NC(=O)N(Cc2ccc(C(=O)Nc3nn[nH]n3)cc2)c2ccc(C(C)(C)C)cc2)c1` [Example 461, N,N-Dimethyl-3-{3-(4-tert-butylphenyl)-3-[4-(2H-tetrazol-5-ylcarbamoyl)benzyl]ureido}benzamide], the IC50 is 764 nM.

In the case of `CCN(CC)C(=O)c1cccc(NC(=O)N(Cc2ccc(C(=O)Nc3nn[nH]n3)cc2)c2ccc(C(C)(C)C)cc2)c1` [Example 462, N,N-Diethyl-3-{3-(4-tert-butylphenyl)-3-[4-(2H-tetrazol-5-ylcarbamoyl)benzyl]ureido}benzamide], the IC50 stood at 1160 nM.

Take `CN(C)C(=O)c1cccc(NC(=O)N(Cc2ccc(C(=O)Nc3nn[nH]n3)cc2)c2ccc(C3CCCCC3)cc2)c1` [Example 463, N,N-Dimethyl-3-{3-(4-cyclohexylphenyl)-3-[4-(2H-tetrazol-5-ylcarbamoyl)benzyl]ureido}benzamide]: the IC50 amounted to 256 nM.

For `CCCCN(C)C(=O)c1cccc(NC(=O)N(Cc2ccc(C(=O)Nc3nn[nH]n3)cc2)c2ccc(C3CCCCC3)cc2)c1` [Example 464, N-Butyl-N-methyl-3-{3-(4-cyclohexylphenyl)-3-[4-(2H-tetrazol-5-ylcarbamoyl)benzyl]ureido}benzamide], the IC50 stood at 95 nM.

Take `CCCCNC(=O)c1cccc(NC(=O)N(Cc2ccc(C(=O)Nc3nn[nH]n3)cc2)c2ccc(C3CCCCC3)cc2)c1` [Example 465, N-Butyl-3-{3-(4-cyclohexylphenyl)-3-[4-(2H-tetrazol-5-ylcarbamoyl)benzyl]ureido}benzamide]: the IC50 was 606 nM.

As for `CS(=O)(=O)c1ccccc1NC(=O)N(Cc1ccc(C(=O)Nc2nn[nH]n2)cc1)c1ccc(C2CCCCC2)cc1` [Example 466, 4-[1-(4-Cyclohexylphenyl)-3-(2-methylsulfonylphenyl)ureidomethyl]-N-(2H-tetrazol-5-yl)benzamide], the IC50 came to 2670 nM.

Regarding `CNS(=O)(=O)c1ccc(Cl)c(NC(=O)N(Cc2ccc(C(=O)Nc3nn[nH]n3)cc2)c2ccc(C3CCCCC3)cc2)c1` [Example 467, 4-[3-(2-Chloro-5-methylsulfamoylphenyl)-1-(4-cyclohexylphenyl)ureidomethyl]-N-(2H-tetrazol-5-yl)benzamide], the IC50 amounted to 772 nM.

For the compound `CC(C)c1noc(-c2cccc(NC(=O)N(Cc3ccc(C(=O)Nc4nn[nH]n4)cc3)c3ccc(C4CCCCC4)cc3)c2)n1` [Example 468, 4-{1-(4-Cyclohexylphenyl)-3-[3-(3-isopropyl-[1,2,4]oxadiazol-5-yl)phenyl]ureidomethyl}-N-(2H-tetrazol-5-yl)benzamide], the IC50 was 23 nM.
